Reference: patent publication US20020035061A1, “COMPOSITIONS AND METHODS FOR TREATING INFECTIONS USING CATIONIC PEPTIDES ALONE OR IN COMBINATION WITH ANTIBIOTICS” (priority 1996, published 2002)

Key:
Type in all cases: cell-based
[1] = system: bacterial isolates; assay: microbe, parasite or virus in culture
[2] = system: S. maltophilia; conditions: S. maltophilia SMA002
[3] = system: various bacterial strains; assay: Broth dilution assay (MIC)
Experimental: Typically 100 μl of calcium and magnesium supplemented Mueller Hinton broth is dispensed into each well of a 96-well microtitre plate and 100 μl volumes of two-fold serial dilutions of the peptide are prepared across the plate. One row of wells receives no peptide and is used as a growth control. Each well is inoculated with approximately 5×10^5 CFU of bacteria and the plate is incubated at 35-37° C. for 16-20 hours.
For example, MIC values in μg/ml are established by broth dilution assay (Table 13) or by agarose dilution assay (Table 14) for a series of cationic peptides against various bacterial strains.

[4] = S. aureus SA014 (also SA014 MRSA)
[5] = S. aureus SA025 (also SA025 MRSA)

Sequence: ILKKFPFFPFRRK [MBI 11A1CN]
- Peptide MIC Alone ([1]; 3. Ciprofloxacin, S. aureus SA10): 128 µg/mL
- Peptide MIC Alone ([1]; 3. Ciprofloxacin, S. aureus SA11): >128 µg/mL
- Peptide MIC Alone ([1]; 4. Gentamicin, E. faecium EFM004): 32 µg/mL
- Peptide MIC Alone ([1]; 4. Gentamicin, S. aureus SA014 MRSA): 8 µg/mL
- Peptide MIC Alone ([1]; 4. Gentamicin, S. epidermidis SE074): 32 µg/mL
- Peptide MIC Alone ([1]; 4. Gentamicin, S. maltophilia SMA019): >128 µg/mL
- Peptide MIC Alone ([1]; 4. Gentamicin, S. maltophilia SMA020): >128 µg/mL
- Mupirocin MIC + Peptide ([1]; E. coli ECO1): 10 µg/mL
- Peptide MIC + Mupirocin ([1]; E. coli ECO1): 4 µg/mL
- Peptide MIC Alone ([1]; E. coli ECO1, Mupirocin section): 32 µg/mL
- Mupirocin MIC + Peptide ([1]; E. coli SBECO2): 30 µg/mL
- Peptide MIC + Mupirocin ([1]; E. coli SBECO2): 2 µg/mL
- Peptide MIC Alone ([1]; E. coli SBECO2, Mupirocin section): 128 µg/mL
- Peptide MIC + Vancomycin ([1]; E. faecalis EFS001): 0.125 µg/mL
- Peptide MIC Alone ([1]; E. faecalis EFS001): 4 µg/mL
- Vancomycin MIC + Peptide ([1]; E. faecalis EFS001): 0.5 µg/mL
- Peptide MIC + Vancomycin ([1]; E. faecalis EFS006): 0.25 µg/mL
- Peptide MIC Alone ([1]; E. faecalis EFS006): 128 µg/mL
- Vancomycin MIC + Peptide ([1]; E. faecalis EFS006): 4 µg/mL
- Peptide MIC + Vancomycin ([1]; E. faecalis EFS007): 0.5 µg/mL
- Peptide MIC Alone ([1]; E. faecalis EFS007): 128 µg/mL
- Vancomycin MIC + Peptide ([1]; E. faecalis EFS007): 2 µg/mL
- Peptide MIC + Vancomycin ([1]; E. faecalis EFS010): 2 µg/mL
- Peptide MIC Alone ([1]; E. faecalis EFS010): 128 µg/mL
- Vancomycin MIC + Peptide ([1]; E. faecalis EFS010): 4 µg/mL
- Peptide MIC + Vancomycin ([1]; E. faecalis EFS012): 8 µg/mL
- Peptide MIC Alone ([1]; E. faecalis EFS012): 64 µg/mL
- Vancomycin MIC + Peptide ([1]; E. faecalis EFS012): 32 µg/mL
- Peptide MIC + Vancomycin ([1]; E. faecalis EFS014): 2 µg/mL
- Peptide MIC Alone ([1]; E. faecalis EFS014): 4 µg/mL
- Vancomycin MIC + Peptide ([1]; E. faecalis EFS014): 1 µg/mL
- Gentamicin MIC + Peptide ([1]; E. faecium EFM004): 64 µg/mL
- Peptide MIC + Gentamicin ([1]; E. faecium EFM004): 1 µg/mL
- Peptide MIC + Vancomycin ([1]; E. faecium EFM004): 16 µg/mL
- Peptide MIC Alone ([1]; E. faecium EFM004): 32 µg/mL
- Vancomycin MIC + Peptide ([1]; E. faecium EFM004): 0.5 µg/mL
- Peptide MIC + Vancomycin ([1]; E. faecium EFM007): 16 µg/mL
- Peptide MIC Alone ([1]; E. faecium EFM007): 64 µg/mL
- Vancomycin MIC + Peptide ([1]; E. faecium EFM007): 4 µg/mL
- Peptide MIC + Vancomycin ([1]; E. faecium EFM009): 8 µg/mL
- Peptide MIC Alone ([1]; E. faecium EFM009): 64 µg/mL
- Vancomycin MIC + Peptide ([1]; E. faecium EFM009): 4 µg/mL
- Peptide MIC + Tobramycin ([1]; P. aeruginosa PA026): 0.125 µg/mL
- Tobramycin MIC + Peptide ([1]; P. aeruginosa PA026): 4 µg/mL
- Peptide MIC Alone ([1]; P. aeruginosa PA026, Tobramycin section): >128 µg/mL
- Peptide MIC + Tobramycin ([1]; P. aeruginosa PA032): 0.5 µg/mL
- Tobramycin MIC + Peptide ([1]; P. aeruginosa PA032): 8 µg/mL
- Peptide MIC Alone ([1]; P. aeruginosa PA032, Tobramycin section): >128 µg/mL
- Ciprofloxacin MIC + Peptide ([1]; S. aureus SA10): 16 µg/mL
- Peptide MIC + Ciprofloxacin ([1]; S. aureus SA10): 4 µg/mL
- Ciprofloxacin MIC + Peptide ([1]; S. aureus SA11): 32 µg/mL
- Peptide MIC + Ciprofloxacin ([1]; S. aureus SA11): 1 µg/mL
- Peptide MIC + Tobramycin [1, 4]: 8 µg/mL
- Tobramycin MIC + Peptide [1, 4]: 0.125 µg/mL
- Peptide MIC Alone ([1]; S. aureus SA014 (also SA014 MRSA), Tobramycin section): 16 µg/mL
- Gentamicin MIC + Peptide ([1]; S. aureus SA014 MRSA): 2 µg/mL
- Peptide MIC + Gentamicin ([1]; S. aureus SA014 MRSA): 4 µg/mL
- Peptide MIC + Tobramycin [1, 5]: 4 µg/mL
- Tobramycin MIC + Peptide [1, 5]: 0.125 µg/mL
- Peptide MIC Alone ([1]; S. aureus SA025 (also SA025 MRSA), Tobramycin section): 8 µg/mL
- Gentamicin MIC + Peptide ([1]; S. epidermidis SE074): 1 µg/mL
- Peptide MIC + Gentamicin ([1]; S. epidermidis SE074): 16 µg/mL
- Peptide MIC + Tobramycin ([1]; S. haemolyticus SHA001): 0.125 µg/mL
- Tobramycin MIC + Peptide ([1]; S. haemolyticus SHA001): 2 µg/mL
- Peptide MIC Alone ([1]; S. haemolyticus SHA001, Tobramycin section): 8 µg/mL
- Peptide MIC + Tobramycin ([1]; S. haemolyticus SHA005): 0.125 µg/mL
- Tobramycin MIC + Peptide ([1]; S. haemolyticus SHA005): 4 µg/mL
- Peptide MIC Alone ([1]; S. haemolyticus SHA005, Tobramycin section): 16 µg/mL
- Gentamicin MIC + Peptide ([1]; S. maltophilia SMA019): 2 µg/mL
- Peptide MIC + Gentamicin ([1]; S. maltophilia SMA019): 16 µg/mL
- Gentamicin MIC + Peptide ([1]; S. maltophilia SMA020): 2 µg/mL
- Peptide MIC + Gentamicin ([1]; S. maltophilia SMA020): 16 µg/mL
- Peptide MIC + Tobramycin ([1]; S. maltophilia SMA029): 32 µg/mL
- Tobramycin MIC + Peptide ([1]; S. maltophilia SMA029): 4 µg/mL
- Peptide MIC Alone ([1]; S. maltophilia SMA029, Tobramycin section): >128 µg/mL
- Peptide MIC + Tobramycin ([1]; S. maltophilia SMA030): 64 µg/mL
- Tobramycin MIC + Peptide ([1]; S. maltophilia SMA030): 2 µg/mL
- Peptide MIC Alone ([1]; S. maltophilia SMA030, Tobramycin section): >128 µg/mL
- FIC ([1]; peptide + Ciprofloxacin, S. aureus SA10): 0.53
- FIC ([1]; peptide + Ciprofloxacin, S. aureus SA11): 0.50
- FIC ([1]; peptide + Gentamicin, E. faecium EFM004): 0.28
- FIC ([1]; peptide + Gentamicin, S. aureus SA014 MRSA): 0.56
- FIC ([1]; peptide + Gentamicin, S. epidermidis SE074): 0.51
- FIC ([1]; peptide + Gentamicin, S. maltophilia SMA019): 0.31
- FIC ([1]; peptide + Gentamicin, S. maltophilia SMA020): 0.31
- FIC ([1]; peptide + Mupirocin, E. coli ECO1): 0.14
- FIC ([1]; peptide + Mupirocin, E. coli SBECO2): 0.05
- FIC ([1]; peptide + Tobramycin, P. aeruginosa PA026): 0.50
- FIC ([1]; peptide + Tobramycin, P. aeruginosa PA032): 0.50
- FIC ([1]; peptide + Tobramycin, S. aureus SA014 (also SA014 MRSA)): 0.50
- FIC ([1]; peptide + Tobramycin, S. aureus SA025 (also SA025 MRSA)): 0.50
- FIC ([1]; peptide + Tobramycin, S. haemolyticus SHA001): 0.52
- FIC ([1]; peptide + Tobramycin, S. haemolyticus SHA005): 0.51
- FIC ([1]; peptide + Tobramycin, S. maltophilia SMA029): 0.16
- FIC ([1]; peptide + Tobramycin, S. maltophilia SMA030): 0.27
- FIC ([1]; peptide + Vancomycin, E. faecalis EFS001): 0.53
- FIC ([1]; peptide + Vancomycin, E. faecalis EFS006): 0.50
- FIC ([1]; peptide + Vancomycin, E. faecalis EFS007): 0.50
- FIC ([1]; peptide + Vancomycin, E. faecalis EFS010): 0.27
- FIC ([1]; peptide + Vancomycin, E. faecalis EFS012): 0.25
- FIC ([1]; peptide + Vancomycin, E. faecalis EFS014): 0.51
- FIC ([1]; peptide + Vancomycin, E. faecium EFM004): 0.50
- FIC ([1]; peptide + Vancomycin, E. faecium EFM007): 0.28
- FIC ([1]; peptide + Vancomycin, E. faecium EFM009): 0.25
- MIC [2]: >128 µg/mL
- MIC ([3]; A. calcoaceticus 8191): >256 µg/mL
- MIC ([3]; E. cloacae 13047): >256 µg/mL
- MIC ([3]; E. coli 25922): 512 µg/mL
- MIC ([3]; E. coli DH1): 128 µg/mL
- MIC ([3]; E. coli ECO003): >256 µg/mL
- MIC ([3]; E. coli KL4): 256 µg/mL
- MIC ([3]; E. faecalis 29212): >256 µg/mL
- MIC ([3]; K. pneumoniae 13883): >256 µg/mL
- MIC ([3]; K. pneumoniae B44): >256 µg/mL
- MIC ([3]; P. aeruginosa 27853): >256 µg/mL
- MIC ([3]; P. aeruginosa 8509041): >256 µg/mL
- MIC ([3]; P. aeruginosa 9308077): >256 µg/mL
- MIC ([3]; P. aeruginosa 9503024): >256 µg/mL
- MIC ([3]; P. aeruginosa H650): >256 µg/mL
- MIC ([3]; P. aeruginosa H652): >256 µg/mL
- MIC ([3]; S. aureus 25923): 512 µg/mL
- MIC ([3]; S. aureus 27217): >256 µg/mL
- MIC ([3]; S. aureus 29213): 512 µg/mL
- MIC ([3]; S. aureus 33593): >256 µg/mL
- MIC ([3]; S. aureus 8402093): >256 µg/mL
- MIC ([3]; S. aureus 8809014): >256 µg/mL
- MIC ([3]; S. aureus 8809025): >256 µg/mL
- MIC ([3]; S. epidermidis 14990): 512 µg/mL
- MIC ([3]; S. maltophilia 13637): 256 µg/mL
- MIC ([3]; S. maltophilia H361): 256 µg/mL
- MIC ([3]; S. marcescens 13880): >256 µg/mL
- MIC ([3]; S. marcescens B21): >256 µg/mL
